Laboratory results taken from patent US11873306B1, “Nano-sized 5,10,15,20-tetrakis (4-hydroxyphenyl)-porphyrins pd(II) complex for super medicinal applications” (KING FAISAL UNIVERSITY, priority 2023, dated 2024).
Values after ≈ are worked out from the molar mass of the structure shown. Read-outs that look alike come from different tables or passages of the source.

Key:
[1] = test system: E. coli; assay: Antimicrobial activity, E. coli (inhibition zone and MIC); assay type: cell-based; conditions: E. coli bacteria
[2] = test system: Microccus luteus; assay: Antimicrobial activity, Microccus luteus (inhibition zone and MIC); assay type: cell-based
[3] = test system: Aspergillus flavus; assay: Antifungal activity, Aspergillus flavus (inhibition zone and MIC); assay type: cell-based; conditions: Aspergillus flavus fungi
[4] = test system: breast cancer cell line; assay: Anti-cancer activity, breast cancer cell line; assay type: cell-based, human
[5] = test system: Colon carcinoma cells (HCT-116 cell line); assay: Anti-cancer activity, colon carcinoma cells; assay type: cell-based
[6] = test system: breast cancer cell line; assay: Antioxidant activity; assay type: cell-based; conditions: against a breast cancer cell line
[7] = Homo sapiens, read-out: IC50 (anticancer activity)

With “5,10,15,20-Tetrakis (4-hydroxyphenyl)-Porphyrins Pd(II) complex [prepared complex]” the MIC [1] was 1.5 µg/mL, the inhibition zone ([1]; listed as prepared nano complex) was 33 mm and the inhibition zone ([1]; listed as present complex) was “about 33 mm”. The MIC [2] was 0.75 µg/mL, the inhibition zone [2] was 41.5 mm and the inhibition zone ([2]; listed as present complex) was “about 41.5 mm”. The MIC [3] was 1.75 µg/mL, the inhibition zone [3] was 23.25 mm and the inhibition zone ([3]; listed as present complex) was “about 23.25 mm”. The “IC50 (anticancer activity)” value [4] was 4.5 µg/mL, the “IC50 (anticancer activity)” value [5] was 4.9 µg/mL and the “IC50 (antioxidant activity)” value [6] was 10.5 µg/mL.
In the case of `O=C1O[C@H]([C@@H](O)CO)C(O)=C1O` [1-ascorbic acid, reference compound], the “IC50 (antioxidant activity)” value [6] was 55.2 µg/mL (≈ 313 µM).
`OC(Cn1cncn1)(Cn1cncn1)c1ccc(F)cc1F` [Fluconazol, reference compound] was tested, and the inhibition zone [3] was 22.00 mm and the MIC ([3]; read-out: MIC) was 2.5 µg/mL (≈ 8.16 µM).
For `CC1COc2c(N3CCN(C)CC3)c(F)cc3c(=O)c(C(=O)O)cn1c23` (stereo not drawn) [Ofloxacin, reference compound], the inhibition zone [1] was 30 mm, the MIC ([1]; Escherichia coli, read-out: MIC) was 2.25 µg/mL (≈ 6.23 µM) and the inhibition zone [2] was 39.75 mm. The MIC ([2]; read-out: MIC) was 1.25 µg/mL (≈ 3.46 µM).
`CC[C@]1(O)C[C@@H]2CN(CCc3c([nH]c4ccccc34)[C@@](C(=O)OC)(c3cc4c(cc3OC)N(C)[C@H]3[C@@](O)(C(=O)OC)[C@H](OC(C)=O)[C@]5(CC)C=CCN6CC[C@]43[C@@H]65)C2)C1` [vinblastine, reference compound] gave an IC50 [4, 7] of 5.2 µg/mL (≈ 6.41 µM) and an IC50 [5, 7] of 5.41 µg/mL (≈ 6.67 µM).
